Read-outs that look alike come from different tables or passages of the source.
Key:
Assay type in all cases: biochemical
mvNei1 = molecular target: T1, mvNei1 (Acanthamoeba polyphaga mimivirus, UniProt Q5UQ00); assay: mvNei1 DNA glycosylase/AP lyase activity assay on DHU:G 24-mer duplex; settings: for effect on mvNei1 catalytic activity: 0.2 mM compound
T1 construct: 6His (C); made in house; host or cells: E. coli Rosetta2 (DE3)
Method: (§1) Figure 4 Comparative analysis of the effect of 2TX and TXn on Fpg/Nei DNA glycosylases. Enzyme activities were measured as described in the Figure 1 legend using […] of a 5′-[^32P]-24-mer DNA duplex containing either an 8-oxoG opposite C for LlFpg or a […] (DHU) opposite G for hNeil1 and mvNei1. The DNA probe was incubated with the indicated protein concentration and 0.2 mM TXn compounds in the presence or absence of 1 mM dithiothreitol (DTT) and TCEP (a representative experiment is illustrated by the upper histograms). The DNA probe for EMSA was 0.1 nM of 5′-[^32P]-[…] DNA duplex containing THF with LlFpg and mvNei1 (bottom panels: gel autoradiography) with the indicated conditions and as described in ‘Materials and Methods’.
(§2) Fpg, hNeil1 and mvNei1 are bifunctional DNA glycosylases associated with concerted DNA glycosylase activity (cleavage of the N-glycosidic bond between the base lesion and the C1′ of the deoxyribose) and AP lyase activity that comprises the successive cleavage of the phosphodiester bonds at the 3′ and 5′ of the resulting abasic (AP) site, respectively (β, δ-elimination). Thus, AP sites that result from the excision of the damaged base are quantitatively converted into one nucleoside gap by these enzymes. The DNA glycosylase/AP lyase activity of each enzyme was measured by incubating 20 nM of 24-mer DNA duplexes ([OG:C] and [DHU:G] for Fpg and hNeil1/mvNei1, respectively) 5′-labeling on the damaged strand (see above) with 2 nM of Fpg, or mvNei1 for 15 min or, with 20 nM of hNeil1 for 30 min at 37 °C in 10 mM Tris-HCl, pH 7.6, 150 mM NaCl, 1 mM EDTA, 0.1 mg/mL BSA and 8% DMSO. The reaction was stopped by the addition of 1 volume of formamide loading buffer (96% formamide, 20 mM Tris/HCl pH 8.0 and 2 mM Na2EDTA), heated at 80 °C for 2 min and then analyzed by 20% Urea-PAGE, as previously described. […] Under these conditions, only 50% of the substrate is converted to the cleavage product (limiting enzyme concentration conditions). For an initial evaluation of the inhibitory effect, 40 µM of 2TX/TXn was used. The thio-compound was added to the reaction mixture before the final addition of the enzyme (competition condition). For the best identified inhibitors, a dose-response curve was generated and IC50^A determined (Figure 1 and Table 1).

hNeil1 = hNeil1 (Homo sapiens, UniProt Q96FI4); assay: hNeil1 DNA glycosylase/AP lyase activity assay on DHU:G 24-mer duplex; set-up: Overproduction was performed as described above for full length hNeil1; 6His (C); made in house; host or cells: E. coli Rosetta2 (DE3); settings: for effect on hNeil1 catalytic activity: 0.2 mM compound
Sequence of hNeil1 (Q96FI4 whole entry): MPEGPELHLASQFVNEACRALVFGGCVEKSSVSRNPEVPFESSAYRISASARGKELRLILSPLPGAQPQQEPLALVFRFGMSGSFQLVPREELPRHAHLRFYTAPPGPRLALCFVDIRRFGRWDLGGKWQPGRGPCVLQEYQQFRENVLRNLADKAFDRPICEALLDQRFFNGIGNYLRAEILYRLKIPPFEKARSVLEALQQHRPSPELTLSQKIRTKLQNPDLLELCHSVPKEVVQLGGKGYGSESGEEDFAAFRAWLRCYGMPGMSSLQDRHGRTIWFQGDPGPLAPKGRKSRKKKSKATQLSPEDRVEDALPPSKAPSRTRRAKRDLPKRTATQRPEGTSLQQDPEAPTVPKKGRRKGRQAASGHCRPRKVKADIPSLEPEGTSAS
Method: as §1, §2

LlFpg = molecular target: T2, LlFpg (Lactococcus lactis subsp. cremoris, UniProt P42371); assay: LlFpg 8-oxoG-DNA glycosylase/AP lyase activity assay (Urea-PAGE radioassay); settings: for IC50: catalytic activity at 37 °C, compound stock (redox mixture) in DMSO, 20 nM 8-oxoG:C 24-mer, 2 nM LlFpg
T2 construct: made in house; host or cells: E. coli BH540 (fpg defective)
T2 sequence (P42371 2-273): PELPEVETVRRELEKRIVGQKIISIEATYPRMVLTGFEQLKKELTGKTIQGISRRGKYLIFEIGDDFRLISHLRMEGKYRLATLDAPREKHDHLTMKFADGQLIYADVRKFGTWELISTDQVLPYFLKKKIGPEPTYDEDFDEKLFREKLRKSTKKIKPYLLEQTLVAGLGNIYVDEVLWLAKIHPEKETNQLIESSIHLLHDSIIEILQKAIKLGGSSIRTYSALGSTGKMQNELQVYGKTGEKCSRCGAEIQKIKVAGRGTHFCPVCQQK
Method: Figure 1 Effect of 2-thioxanthine (2TX)-derivatives on Fpg activity. A total of 20 nM of 5′-[^32P]-8-oxoG-containing 24-bp DNA duplex (labeled on the damaged strand) was incubated with 2 nM of LlFpg alone (dimethyl sulfoxide (DMSO) control) or with the indicated 2TX and 2TX-derivatives (TXn) concentrations, as described in the “Materials and Methods” section. (a) Screening of TXn for Fpg inhibition. Averages and standard deviations were obtained from at least three independent experiments. Mono- and di-thiolated compounds are highlighted in red and blue, respectively. (b) Dose-response curves for best inhibitors. Each data point represents the mean value obtained from at least three independent measurements.
as §2

[1] = catalytic activity at 37 °C, compound stock in DMSO, DHU:G 24-mer, read-out: IC50app^A (Fpg/Nei enzyme catalysis) mvNEI1
[2] = read-out: IC50app^A (Fpg/Nei enzyme catalysis) LlFpg
[3] = catalytic activity at 37 °C, compound stock in DMSO, DHU:G 24-mer, read-out: IC50app^A (Fpg/Nei enzyme catalysis) hNEIL1
[4] = IC50app^A (Fpg/Nei enzyme catalysis) LlFpg
[5] = 1 mM TCEP (DTT to a lesser extent), Figure 4

T1 sequence (Q5UQ00 whole entry): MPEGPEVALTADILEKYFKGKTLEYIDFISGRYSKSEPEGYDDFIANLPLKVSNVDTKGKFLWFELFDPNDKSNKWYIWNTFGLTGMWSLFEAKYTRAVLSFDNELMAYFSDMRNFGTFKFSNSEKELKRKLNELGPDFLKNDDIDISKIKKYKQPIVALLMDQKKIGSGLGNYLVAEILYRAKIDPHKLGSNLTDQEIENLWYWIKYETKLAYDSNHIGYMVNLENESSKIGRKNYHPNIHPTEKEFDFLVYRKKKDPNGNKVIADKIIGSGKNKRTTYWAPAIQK

Compound	IC50 (mvNei1; [1])	IC50 (hNeil1)	IC50 (LlFpg; [2])	effectiveness on Fpg relative to 2TX (LlFpg; from IC50app^A)	effect on mvNei1 catalytic activity (mvNei1; Figure 4)	effect on hNeil1 catalytic activity (hNeil1; Figure 4)	IC50 (hNeil1; [3])	IC50 (mvNei1)	IC50 (LlFpg; [4])	inhibition of mvNei1 DNA binding and catalytic activities in the presence of TCEP (mvNei1; [5])	inhibition of hNeil1 DNA binding and catalytic activities in the presence of TCEP (hNeil1; [5])
FC(F)(F)c1nc(S)c2nc[nH]c2n1 [TX13, 2-trifluoromethyl-6-thiopurine]	> 500 µM	> 250 µM	7.5 ± 1 µM	seven times more effective than 2TX							
O=c1[nH]c(=S)[nH]c2nc[nH]c12 [Compound 2TX, 2-thioxanthine, reference compound]	> 500 µM		48 ± 4 µM		did not significantly affect	did not significantly affect	> 500 µM				
O=c1[nH]c2[nH]c(=S)[nH]c(=O)c2[nH]1 [TX14, 2-thio-6,8-dioxopurine]							> 500 µM	> 500 µM	28 ± 7 µM		
O=c1[nH]c(=S)[nH]c2[nH]c(=S)[nH]c12 [TX19]	124 ± 4 µM		15 ± 1 µM		apparent inhibitory effects	apparent inhibitory effects	19 ± 1 µM			suppressed	suppressed
Nc1ncnc2[nH]c(S)nc12 [TX27]							160 ± 16 µM	277 ± 18 µM	20 ± 2 µM		

From publication PMC7139703, “Thiopurine Derivative-Induced Fpg/Nei DNA Glycosylase Inhibition: Structural, Dynamic and Functional Insights” (International Journal of Molecular Sciences, 2020)
